# Patent US11179471B2, “Peptide for cytosolic delivery” (priority 2017, dated 2021)
# Entries after “also recorded” stand apart in the source; their conditions may differ. Residues, ends and D or L forms follow the SMILES beside them.
# Columns and labels:
# [1] = test system: HeLa cells; experiment: Release of Alexa 488-dextran (10 kDa) into the cytoplasm, confocal microscopy; format: cell-based
# Method: Cells; HeLa, peptides; 40 μM, Alexa 488-dextran (10 kDa); 200 μg/mL, treatment; 1 hr in α-MEM(−).
# Cells; HeLa, peptides; 40 μM, Alexa 488-dextran (10 kDa); 200 μg/mL, treatment; 1 hr in α-MEM(−). The results are presented as means ±SE (n=3). **; p<0.01 (Student's t-test).
# Cells; HeLa, peptides; 40 μM, Alexa 488-dextran (10 kDa); 200 μg/mL, treatment; 1 hr in α-MEM(−). Results are presented as means±SE (n=3). *; p<0.05, **; p<0.01, ***; p<0.001 (one-way ANOVA followed by the Tukey-Kramer honestly significant difference test (post-hoc test)).
# (§1) In the presence of each peptide obtained in Example 1 (L17E, L17E/Q21E, HA/E1, HA/E2) (40 μM) or in the absence of the peptides (a control, no peptide), HeLa cells and Alexa 488-dextran (Molecular Probes, 10 kDa) (200 μg/mL) were treated in α-MEM(−) for 1 hour. The cells were washed, and observed with a confocal microscope.
# as §1, with “L17Aad)” for “L17E/Q21E, HA/E1, HA/E2)”
# as §1, with “(HAad, HA/E2, L17Aad, L17E)” for “(L17E, L17E/Q21E, HA/E1, HA/E2)”
# When HeLa cells were incubated with Alexa 488-dextran (10 kDa) (200 μg/mL) as a macromolecular drug model in the presence of HAad (40 μM) in α-MEM(−) for 1 hour, Alexa 488-dextran release into about 75% of cells (cytosol) was observed. In contrast, when the incubation was performed in the presence of L17E, Alexa 488-dextran release into about 50% of the cells was observed.
# HeLa cells, Alexa 488-dextran (Molecular Probes, 10 kDa) (200 μg/mL), and HAad; or HeLa cells, Alexa 488-dextran, (Molecular Probes, 10 kDa) (200 μg/mL), and HAad-homoR (20 μM) were treated in α-MEM(−) for 1 hour. The cells were washed, and observed with a confocal microscope.
# [2] = test system: NIH3T3 cells; experiment: Intracellular release of dextran (10 kDa) in NIH3T3 cells; format: cell-based
# Method: Intracellular release of dextran is more difficult in NIH3T3 cells than in HeLa cells. NIH3T3 cells and dextran (10 kDa) were incubated in the presence of HAad, HA/E2, or L17E (40 μM each) in DEME(−) medium for 1 hour in the same manner as in Example 6.
compound,measurement,setting,value
"CC[C@H](C)[C@H](N)C(=O)N[C@@H](Cc1c[nH]c2ccccc12)C(=O)N[C@@H](CC(C)C)C(=O)N[C@H](C(=O)N[C@@H](C)C(=O)N[C@@H](CC(C)C)C(=O)N[C@@H](CCCCN)C(=O)N[C@@H](Cc1ccccc1)C(=O)N[C@@H](CC(C)C)C(=O)NCC(=O)N[C@@H](CCCCN)C(=O)N[C@@H](C)C(=O)N[C@@H](C)C(=O)N[C@@H](C)C(=O)N[C@@H](CCCCN)C(=O)N[C@@H](C)C(=O)N[C@@H](CCCC(=O)O)C(=O)N[C@@H](C)C(=O)N[C@@H](CCCCN)C(=O)N[C@@H](CCC(N)=O)C(=O)N[C@@H](CCCC(=O)O)C(=O)N[C@@H](CC(C)C)C(=O)N[C@@H](CO)C(=O)N[C@@H](CCCCN)C(=O)N[C@@H](CC(C)C)C(N)=O)[C@@H](C)O [HAad, H-IWLTALKFLGKAAAKAXAKQXLSKL-amide] (HELM PEPTIDE1{I.W.L.T.A.L.K.F.L.G.K.A.A.A.K.A.[O=C(O)CCC[C@H](N[*:1])C(=O)[*:2]].A.K.Q.[O=C(O)CCC[C@H](N[*:1])C(=O)[*:2]].L.S.K.L.[am]}$$$$V2.0)",cells in which release of Alexa 488-dextran into the cytoplasm was observed,"[1]; peptide 20 μM, Alexa 488-dextran (10 kDa) 200 μg/mL, 1 hour in α-MEM(−)",about 40%
same,"endosome-encapsulated substance (Alexa 488-dextran) releasing activity, in words","[1]; peptide 40 μM, Alexa 488-dextran 200 μg/mL, 1 hr, compared with L17E",higher endosomal content release activity than L17E; also recorded: Significant outflow; also recorded: much more effectively
same,cells in which Alexa 488-dextran release into the cytosol was observed,"[1]; peptide 40 μM, Alexa 488-dextran (10 kDa) 200 μg/mL, 1 hour in α-MEM(−)",about 75%
same,intracellular release of dextran relative to L17E,[2]; 40 μM,twice
same,cells in which intracellular release of dextran was observed,"[2]; peptide 40 μM, dextran (10 kDa), DEME(−) medium 1 hour",about 35%
